Experimental data published in ChEMBL document CHEMBL2074051, “Ranking of P-glycoprotein substrates and inhibitors by a calcein-AM fluorometry screening assay” (Anticancer Drugs, 1996).
Non-standard residues stand in square brackets, D forms with d. Residues, ends and D or L forms follow the SMILES beside them. *: point of attachment. NMeI = CC[C@H](C)[C@H](NC)C(=O)O; NMeD = CN[C@@H](CC(=O)O)C(=O)O; NMeV = CN[C@H](C(=O)O)C(C)C; Pip = O=C(O)[C@@H]1CCCCN1; dLac = C[C@@H](O)C(=O)O; OtBu = CC(C)(C)O*

Columns and labels:
Format in all cases: functional, cell-based
[1] = target: T1, ATP-dependent translocase ABCB1 (P-glycoprotein) (Homo sapiens, UniProt P08183); test: TP_TRANSPORTER: increase in Calcein-AM intracellular accumulation (Calcein-AM: 0.25 uM) in MDR-P388 cells; settings: mouse, probe Calcein-AM
T1 sequence (P08183 whole entry): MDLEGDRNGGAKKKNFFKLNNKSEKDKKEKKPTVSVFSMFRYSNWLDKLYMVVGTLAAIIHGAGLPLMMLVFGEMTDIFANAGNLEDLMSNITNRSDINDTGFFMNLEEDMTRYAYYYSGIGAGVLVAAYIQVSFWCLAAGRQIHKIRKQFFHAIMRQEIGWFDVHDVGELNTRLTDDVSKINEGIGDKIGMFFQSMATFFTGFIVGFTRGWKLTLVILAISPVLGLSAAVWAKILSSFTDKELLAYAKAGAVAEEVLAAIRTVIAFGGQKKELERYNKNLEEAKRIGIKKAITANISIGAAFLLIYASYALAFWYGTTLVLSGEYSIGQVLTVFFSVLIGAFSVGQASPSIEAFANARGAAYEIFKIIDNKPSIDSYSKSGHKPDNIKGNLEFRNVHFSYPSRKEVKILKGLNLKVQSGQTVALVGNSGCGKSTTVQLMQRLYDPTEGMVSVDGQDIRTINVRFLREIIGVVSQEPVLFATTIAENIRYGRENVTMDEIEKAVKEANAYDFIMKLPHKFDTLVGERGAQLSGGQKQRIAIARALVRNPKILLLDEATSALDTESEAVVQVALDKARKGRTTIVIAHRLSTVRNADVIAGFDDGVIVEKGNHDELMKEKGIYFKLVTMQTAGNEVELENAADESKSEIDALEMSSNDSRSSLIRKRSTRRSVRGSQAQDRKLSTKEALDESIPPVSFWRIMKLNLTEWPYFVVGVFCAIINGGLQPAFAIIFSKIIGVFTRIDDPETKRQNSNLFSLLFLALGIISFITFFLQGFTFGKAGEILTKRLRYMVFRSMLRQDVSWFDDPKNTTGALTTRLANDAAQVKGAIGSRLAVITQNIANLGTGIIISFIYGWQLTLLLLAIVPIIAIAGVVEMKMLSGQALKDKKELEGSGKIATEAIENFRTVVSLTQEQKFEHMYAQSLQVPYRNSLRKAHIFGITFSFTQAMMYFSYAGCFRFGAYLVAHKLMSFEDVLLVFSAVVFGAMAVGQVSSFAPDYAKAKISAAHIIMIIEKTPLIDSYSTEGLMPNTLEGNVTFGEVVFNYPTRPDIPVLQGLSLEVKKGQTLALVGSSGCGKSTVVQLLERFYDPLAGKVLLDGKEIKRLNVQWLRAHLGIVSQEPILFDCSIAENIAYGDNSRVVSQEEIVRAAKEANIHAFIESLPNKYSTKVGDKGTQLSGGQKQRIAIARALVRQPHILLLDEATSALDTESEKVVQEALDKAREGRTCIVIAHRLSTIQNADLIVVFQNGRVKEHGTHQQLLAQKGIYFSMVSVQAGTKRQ

[2] = target: T1, ATP-dependent translocase ABCB1 (P-glycoprotein); test: (§1) TP_TRANSPORTER: increase in Calcein-AM intracellular accumulation (Calcein-AM: 0.25 uM) in MDR-CEM cells; settings: human, MDR-CEM cells, probe Calcein-AM
[3] = target: ATP-dependent translocase ABCB1 (Homo sapiens, UniProt P08183); test: as §1
Chain of ATP-dependent translocase ABCB1 (P08183 whole entry): as above

With CC[C@H](C)[C@H]1C(=O)NCC(=O)N(C)[C@@H](C(C)C)C(=O)N[C@@H](Cc2ccc(OC)cc2)C(=O)O[C@H](C)C(=O)N2CCCC[C@H]2C(=O)N(C)[C@@H](C(C)C)C(=O)N[C@@H](C(C)C)C(=O)N(C)[C@@H](CC(=O)OC(C)(C)C)C(=O)N(C)[C@@H]([C@@H](C)CC)C(=O)N1C (cyclo(G[NMeV]Y(Me)[dLac][Pip][NMeV]V[NMeD](OtBu)[NMeI][NMeI])) the EC50 [1] was 60 nM and the EC50 [2] was 220 nM.

Work on CCN(CC)CCCC(C)Nc1c2ccc(Cl)cc2nc2ccc(OC)cc12 (stereo not drawn) [QUINACRINE] yielded an EC50 [3] of 14400 nM.
